Experimental data from ChEMBL document CHEMBL5338791, “Discovery of Novel 1,3-Diphenylpyrazine Derivatives as Potent S-Phase Kinase-Associated Protein 2 (Skp2) Inhibitors for the Treatment of Cancer” (J Med Chem, 2023).
In brackets after ≈: the same amount, converted by molar mass.

Columns and labels:
[1] = target: S-phase kinase-associated protein 2/Cyclin-dependent kinases regulatory subunit 1/S-phase kinase-associated protein 1 (Homo sapiens, UniProt Q13309); assay: Inhibition of GST-tagged Skp2/Skp1 (unknown origin)/His6-tagged Cks1 (unknown origin) interaction preincubated with Skp2/Skp1 for 10 mins followed by Cks1 addition measured after 20 mins by HTRF assay; assay type: protein assay
Sequence of S-phase kinase-associated protein 2/Cyclin-dependent kinases regulatory subunit 1/S-phase kinase-associated protein 1 (P61024 whole entry): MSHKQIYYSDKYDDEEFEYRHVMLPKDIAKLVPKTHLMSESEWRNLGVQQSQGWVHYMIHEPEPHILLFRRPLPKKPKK
Sequence of S-phase kinase-associated protein 2/Cyclin-dependent kinases regulatory subunit 1/S-phase kinase-associated protein 1 (Q13309 whole entry): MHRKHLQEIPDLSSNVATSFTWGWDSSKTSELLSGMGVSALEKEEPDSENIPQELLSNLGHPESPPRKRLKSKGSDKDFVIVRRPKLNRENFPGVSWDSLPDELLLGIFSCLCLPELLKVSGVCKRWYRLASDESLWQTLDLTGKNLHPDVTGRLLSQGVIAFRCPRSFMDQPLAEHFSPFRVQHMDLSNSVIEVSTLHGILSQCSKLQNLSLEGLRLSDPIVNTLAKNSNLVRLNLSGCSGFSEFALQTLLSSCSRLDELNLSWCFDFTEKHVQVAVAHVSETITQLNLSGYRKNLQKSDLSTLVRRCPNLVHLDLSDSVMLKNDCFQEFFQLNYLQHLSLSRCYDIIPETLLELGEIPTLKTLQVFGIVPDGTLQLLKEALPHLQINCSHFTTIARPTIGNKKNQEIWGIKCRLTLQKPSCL
Sequence of S-phase kinase-associated protein 2/Cyclin-dependent kinases regulatory subunit 1/S-phase kinase-associated protein 1 (P63208 whole entry, further chain): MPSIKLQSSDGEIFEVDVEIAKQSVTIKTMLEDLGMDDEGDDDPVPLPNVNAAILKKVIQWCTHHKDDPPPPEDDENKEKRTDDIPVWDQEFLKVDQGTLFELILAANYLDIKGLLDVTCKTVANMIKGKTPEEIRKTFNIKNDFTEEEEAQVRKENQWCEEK

MGC-803 = assay: Antitumor activity against human MGC-803 cells assessed as cell growth inhibition incubated for 72 hrs by MTT assay; assay type: functional, cell-based; conditions: MGC-803, 72 h
NCI-H1299 = assay: Antitumor activity against human NCI-H1299 cells assessed as cell growth inhibition incubated for 72 hrs by MTT assay; assay type: functional, cell-based; conditions: NCI-H1299, 72 h
MCF7 = assay: Antitumor activity against human MCF7 cells assessed as cell growth inhibition incubated for 72 hrs by MTT assay; assay type: functional, cell-based; conditions: MCF7, 72 h
[2] = Antitumor activity against human EC1 cells assessed as cell growth inhibition incubated for 72 hrs by MTT assay; assay type: functional, cell-based; conditions: EC1, 72 h
PC-3 = assay: Antitumor activity against human PC-3 cells assessed as cell growth inhibition incubated for 72 hrs by MTT assay; assay type: functional, cell-based; conditions: PC-3, 72 h
[3] = Solubility in cell culture medium by HPLC analysis; assay type: physicochemical

| SMILES | IC50 [1] [µM] | also measured |
| --- | --- | --- |
| CN(C)CCNc1cnc(-c2ccccc2)c(-c2ccccc2)n1 | > 50 |  |
| CC(C)(C)C(=O)NCC1CCN(c2cnc(-c3ccc(N)cc3)c(-c3ccccc3)n2)CC1 | > 25 |  |
| Cc1ccc(S(=O)(=O)NC(=O)COCCCCN(c2cnc(-c3ccccc3)c(-c3ccccc3)n2)C(C)C)cc1 | > 50 |  |
| CC(C)N(C)c1cnc(-c2ccccc2)c(-c2ccccc2)n1 | > 50 |  |
| CC(C)N(CCCCOCC(=O)O)c1cnc(-c2ccccc2)c(-c2ccccc2)n1 [LASELIPAG] | > 50 |  |
| O=C(NCC1CCN(c2cnc(-c3ccccc3)c(-c3ccccc3)n2)CC1)c1cccs1 | 8.5 |  |
| NC1CCN(c2cnc(-c3ccccc3)c(-c3ccccc3)n2)CC1 | 25.2 |  |
| CC(C)(C)C(=O)NCC1CCN(c2cnc(-c3ccc(C(F)(F)F)cc3)c(-c3ccccc3)n2)CC1 | 10.9 |  |
| CS(=O)(=O)NC(=O)COCCCCNc1cnc(-c2ccccc2)c(-c2ccccc2)n1 | > 50 |  |
| O=C(CCl)NCC1CCN(c2cnc(-c3ccccc3)c(-c3ccccc3)n2)CC1 | > 25 |  |
| CC(C)(C)C(=O)NCC1CCN(c2cnc(C3CCCCC3)c(-c3ccccc3)n2)CC1 | > 25 |  |
| O=C(NCC1CCN(c2cnc(-c3ccccc3)c(-c3ccccc3)n2)CC1)C1CC1 | 3.3 |  |
| CC(C)(C)C(=O)NCC1CCN(c2cnc(-c3cncnc3)c(-c3ccccc3)n2)CC1 | > 25 |  |
| CCS(=O)(=O)NC1CCN(c2cnc(-c3ccccc3)c(-c3ccccc3)n2)CC1 | > 25 |  |
| O=C(CBr)NCC1CCN(c2cnc(-c3ccccc3)c(-c3ccccc3)n2)CC1 | > 25 |  |
| O=C(NC1CCN(c2cnc(-c3ccccc3)c(-c3ccccc3)n2)CC1)Oc1ccccc1 | 13.5 |  |
| CC(C)(C)C(=O)NCC1CCN(c2cnc(-c3ccc(CO)cc3)c(-c3ccccc3)n2)CC1 |  | IC50 (MGC-803): > 100 µM; IC50 (NCI-H1299): 100 µM; IC50 (MCF7): > 100 µM; IC50 [2]: > 100 µM; IC50 (PC-3): > 100 µM; solubility [3]: 0.06 µg/mL (≈ 0.131 µM) |
| CN(C)c1ccc(-c2ncc(N3CCC(CNC(=O)C(C)(C)C)CC3)nc2-c2ccccc2)cc1 | 5.2 |  |
| CC(=O)N1CCN(c2cnc(-c3ccccc3)c(-c3ccccc3)n2)CC1 | 17.9 |  |
| CC(C)c1ncc(N2CCC(CNC(=O)C(C)(C)C)CC2)nc1-c1ccccc1 | > 25 |  |
| CS(=O)(=O)NC(=O)COCCCCN(Cc1ccccc1)c1cnc(-c2ccccc2)c(-c2ccccc2)n1 | > 50 |  |
| CC(C)(C)OC(=O)N1CCCN(c2cnc(-c3ccccc3)c(-c3ccccc3)n2)CC1 | 24.5 |  |
| O=C(NC1CCN(c2cnc(-c3ccccc3)c(-c3ccccc3)n2)CC1)OCc1ccccc1 | > 25 |  |
| O=C(CCCl)NCC1CCN(c2cnc(-c3ccccc3)c(-c3ccccc3)n2)CC1 | 13.1 |  |
| O=C(NCC1CCN(c2cnc(-c3ccccc3)c(-c3ccccc3)n2)CC1)C(F)(F)F | 15.6 |  |
| CC(C)(C)C(=O)NCC1CCN(c2cnc(-c3ccncc3)c(-c3ccccc3)n2)CC1 | > 25 |  |

| SMILES | IC50 [1] [µM] | also measured |
| --- | --- | --- |
| CC(C)Nc1cnc(-c2ccccc2)c(-c2ccccc2)n1 | > 50 |  |
| C=CC(=O)N1CCN(c2cnc(-c3ccccc3)c(-c3ccccc3)n2)CC1 | > 25 |  |
| CC1CN(c2cnc(-c3ccccc3)c(-c3ccccc3)n2)CCN1C(=O)OC(C)(C)C (stereo not drawn) | > 25 |  |
| O=C(NCC1CCN(c2cnc(-c3ccccc3)c(-c3ccccc3)n2)CC1)C1CCCCC1 | 8.5 |  |
| CC(C)(C)OC(=O)NC1CCN(c2cnc(-c3ccccc3)c(-c3ccccc3)n2)C1 (stereo not drawn) | > 25 |  |
| O=C(CBr)N1CCN(c2cnc(-c3ccccc3)c(-c3ccccc3)n2)CC1 | > 25 |  |
| O=C(NCC1CCN(c2cnc(-c3ccccc3)c(-c3ccccc3)n2)CC1)N1CCOCC1 |  | IC50 (MGC-803): 59.3 µM; IC50 (NCI-H1299): 30.4 µM; IC50 (MCF7): 47.1 µM; IC50 [2]: 51.8 µM; IC50 (PC-3): 28.6 µM; solubility [3]: 0.55 µg/mL (≈ 1.2 µM) |
| CC(C)(C)C(=O)NCC1CCN(c2cnc(-c3ccccc3)c(-c3ccccc3)n2)CC1 |  | IC50 (MGC-803): > 100 µM; IC50 (NCI-H1299): 59 µM; IC50 (MCF7): 51.8 µM; IC50 [2]: 75.6 µM; IC50 (PC-3): 68 µM; solubility [3]: 0.1 µg/mL (≈ 0.233 µM) |
| CC(C)(C)C(=O)NCC1CCN(c2cnc(-c3cccc(CO)c3)c(-c3ccccc3)n2)CC1 | > 25 |  |
| CN(c1cnc(-c2ccccc2)c(-c2ccccc2)n1)C1CCCCC1 | > 50 |  |
| Cc1ccc(S(=O)(=O)NC2CCN(c3cnc(-c4ccccc4)c(-c4ccccc4)n3)CC2)cc1 | > 25 |  |
| OCC1CCN(c2cnc(-c3ccccc3)c(-c3ccccc3)n2)CC1 | > 50 |  |
| O=C(N1CCOCC1)N1CCN(c2cnc(-c3ccccc3)c(-c3ccccc3)n2)CC1 | > 25 |  |
| Oc1cnc(-c2ccccc2)c(-c2ccccc2)n1 | > 50 |  |
| CC(C)(C)OC(=O)NCCCNc1cnc(-c2ccccc2)c(-c2ccccc2)n1 | > 25 |  |
| CC(C)(C)C(=O)NCC1CCN(c2cnc(-c3ccccc3CO)c(-c3ccccc3)n2)CC1 | > 25 |  |
| O=C(CCl)N1CCN(c2cnc(-c3ccccc3)c(-c3ccccc3)n2)CC1 | 9.9 |  |
| CC(C)(C)C(=O)N1CCN(c2cnc(-c3ccccc3)c(-c3ccccc3)n2)CC1 | 13.2 |  |
| CN(C)CCN(C)c1cnc(-c2ccccc2)c(-c2ccccc2)n1 | > 50 |  |
| Clc1cnc(-c2ccccc2)c(-c2ccccc2)n1 | > 50 |  |
| O=C(c1ccccc1)N1CCN(c2cnc(-c3ccccc3)c(-c3ccccc3)n2)CC1 | 17.7 |  |
| O=C(CCCl)N1CCN(c2cnc(-c3ccccc3)c(-c3ccccc3)n2)CC1 | > 25 |  |
| O=C(C1CCCCC1)N1CCN(c2cnc(-c3ccccc3)c(-c3ccccc3)n2)CC1 | > 25 |  |
| c1ccc(-c2ncc(NC3CCCCC3)nc2-c2ccccc2)cc1 | > 50 |  |
| C=CC(=O)NCC1CCN(c2cnc(-c3ccccc3)c(-c3ccccc3)n2)CC1 | > 25 |  |
| O=C(C1CC1)N1CCN(c2cnc(-c3ccccc3)c(-c3ccccc3)n2)CC1 | 5.8 |  |

| SMILES | IC50 [1] [µM] | also measured |
| --- | --- | --- |
| CC1CCN(c2cnc(-c3ccccc3)c(-c3ccccc3)n2)CC1 | > 50 |  |
| CC(C)N(CCCCOCC(=O)N1CCOCC1)c1cnc(-c2ccccc2)c(-c2ccccc2)n1 | 52.6 |  |
| CS(=O)(=O)NC(=O)COCCNc1cnc(-c2ccccc2)c(-c2ccccc2)n1 | > 50 |  |
| c1ccc(-c2ncc(NCCN3CCOCC3)nc2-c2ccccc2)cc1 | > 50 |  |
| c1ccc(-c2ncc(N3CCOCC3)nc2-c2ccccc2)cc1 | > 50 |  |
| CC(C)N(CCCCOCC(=O)Nc1nccs1)c1cnc(-c2ccccc2)c(-c2ccccc2)n1 | > 50 |  |
| CC(C)COC(=O)NC1CCN(c2cnc(-c3ccccc3)c(-c3ccccc3)n2)CC1 | > 25 |  |
| CN(C)c1cnc(-c2ccccc2)c(-c2ccccc2)n1 | 45.4 |  |
| CC(C)N(CCCCOCC(=O)Nc1ccccc1)c1cnc(-c2ccccc2)c(-c2ccccc2)n1 | > 50 |  |
| COc1cnc(-c2ccccc2)c(-c2ccccc2)n1 | > 50 |  |
| C=Cc1ncc(N2CCC(CNC(=O)C(C)(C)C)CC2)nc1-c1ccccc1 | > 25 |  |
| CN(CCNC(=O)OC(C)(C)C)c1cnc(-c2ccccc2)c(-c2ccccc2)n1 | 20.2 |  |
| CCC(=O)N1CCN(c2cnc(-c3ccccc3)c(-c3ccccc3)n2)CC1 | 10 |  |
| CNc1cnc(-c2ccccc2)c(-c2ccccc2)n1 | > 50 |  |
| CN(C(=O)OC(C)(C)C)C1CCN(c2cnc(-c3ccccc3)c(-c3ccccc3)n2)CC1 | > 25 |  |
| CN(C)C1CCN(c2cnc(-c3ccccc3)c(-c3ccccc3)n2)CC1 | > 50 |  |
| c1ccc(-c2ncc(N3CCSCC3)nc2-c2ccccc2)cc1 | > 50 |  |
| O=C(c1cccs1)N1CCN(c2cnc(-c3ccccc3)c(-c3ccccc3)n2)CC1 | > 25 |  |
| CC(C)(C)C(=O)NCC1CCN(c2cnc(-c3cn[nH]c3)c(-c3ccccc3)n2)CC1 | > 25 |  |
| CC(=O)NCC1CCN(c2cnc(-c3ccccc3)c(-c3ccccc3)n2)CC1 | 12.4 |  |
| CC(C)(C)C(=O)NC1CCN(c2cnc(-c3ccccc3)c(-c3ccccc3)n2)CC1 | 10.2 |  |
| CC(C)(C)OC(=O)NC1CCCN(c2cnc(-c3ccccc3)c(-c3ccccc3)n2)C1 (stereo not drawn) | > 25 |  |
| CN1CCN(c2cnc(-c3ccccc3)c(-c3ccccc3)n2)CC1 | > 50 |  |
| CC(C)(C)C(=O)NCC1CCN(c2cnc(-c3ccco3)c(-c3ccccc3)n2)CC1 | 8.12 |  |
| CC(C)(C)OC(=O)NC1CCN(c2cnc(-c3ccccc3)c(-c3ccccc3)n2)CC1 | 13.7 |  |
| CC(C)(C)C(=O)NCC1CCN(c2cnc(Br)c(-c3ccccc3)n2)CC1 | > 25 |  |
